Tests used:
Assay in all cases: microscale thermophoresis
[1] = tested on: Dm-LS-2 (DNA, aptamer, HFNAP: side-chain on 5' nucleobase of each coding trinucleotide, positions 19,22,25,...,61 (codon key Figure 1B)) GAAAGCAGGACTGGAGATCCGCGCCGCTTTTATCCCTGTCCCCGCTACCCGTATCCCTCCTTGCAGACCGAACTAGAGCTT; details: 5 mM KCl, 1 mM MgCl2, 1 mM CaCl2 added; HBS-P+ buffer, 25 °C
[2] = tested on: Dm-HS-1 (DNA, aptamer, HFNAP nucleobase side-chains: fluorophenyl at 19; allylamine at 22,25,37; alcohol at 28,34,49; phenol at 31,46; cyclopentyl at 40; cyclopropyl at 43,58; imidazole at 52,55,61) GAAAGCAGGACTGGAGATCGATTCTGGTGCTGTTGATCTCCGCCATTGTGCTCCTACCCTTCACAGACCGAACTAGAGCTT; details: 5 mM KCl, 1 mM MgCl2, 1 mM CaCl2 added; HBS-P+ buffer, 25 °C
[3] = tested on: Dm-HS-2 (DNA, aptamer, HFNAP: side-chain on 5' nucleobase of each coding trinucleotide, positions 19,22,25,...,61 (codon key Figure 1B)) GAAAGCAGGACTGGAGATCTATGGTCGCATCGTTGACCCTTGTCCTGCCCCTGTCTCTCTCAACAGACCGAACTAGAGCTT; details: 5 mM KCl, 1 mM MgCl2, 1 mM CaCl2 added; HBS-P+ buffer, 25 °C
[4] = tested on: Dm-HS-3 (DNA, aptamer, HFNAP: side-chain on 5' nucleobase of each coding trinucleotide, positions 19,22,25,...,61 (codon key Figure 1B)) GAAAGCAGGACTGGAGATCGATTATTGTGATTTTGATCTCCTCCATATCCCCTTCCCTACTCGCAGACCGAACTAGAGCTT; details: 5 mM KCl, 1 mM MgCl2, 1 mM CaCl2 added; HBS-P+ buffer, 25 °C
[5] = tested on: Dm-HS-5 (DNA, aptamer, HFNAP: side-chain on 5' nucleobase of each coding trinucleotide, positions 19,22,25,...,61 (codon key Figure 1B)) GAAAGCAGGACTGGAGATCGATTCTGGTGCTGTTGATCTCCGCCATTGTGCTCCTGCCCTTCACAGACCGAACTAGAGCTT; details: 5 mM KCl, 1 mM MgCl2, 1 mM CaCl2 added; HBS-P+ buffer, 25 °C
[6] = tested on: Dm-CCS-4 (DNA, aptamer, HFNAP: side-chain on 5' nucleobase of each coding trinucleotide, positions 19,22,25,...,61 (codon key Figure 1B)) GAAAGCAGGACTGGAGATCGCTGACAGCGATCCCGACTGTGATCTTGCTGCTGCCTCTCGCGCCAGACCGAACTAGAGCTT; details: 5 mM KCl, 1 mM MgCl2, 1 mM CaCl2 added; HBS-P+ buffer, 25 °C
[7] = tested on: Dm-reference-based-random-after-selection-1 (DNA, other, HFNAP: side-chain on 5' nucleobase of each coding trinucleotide, positions 19,22,25,...,61 (codon key Figure 1B)) GAAAGCAGGACTGGAGATCCATGTCCACCGTACCGCTACTGCTACTATTTGCTTCGGTACTGTCAGACCGAACTAGAGCTT; details: 5 mM KCl, 1 mM MgCl2, 1 mM CaCl2 added; HBS-P+ buffer, 25 °C
[8] = tested on: Dm-reference-based-random-after-selection-2 (DNA, other, HFNAP: side-chain on 5' nucleobase of each coding trinucleotide, positions 19,22,25,...,61 (codon key Figure 1B)) GAAAGCAGGACTGGAGATTTGTGCCCCTGATGCCCATGGTCCCTCCGCTGCTAACGTTTGCCTCAGACCGAACTAGAGCTT; details: 5 mM KCl, 1 mM MgCl2, 1 mM CaCl2 added; HBS-P+ buffer, 25 °C
[9] = tested on: Dm-HS-3 ∆ s.c. (DNA, aptamer, none (no side-chains)) GAAAGCAGGACTGGAGATCGATTATTGTGATTTTGATCTCCTCCATATCCCCTTCCCTACTCGCAGACCGAACTAGAGCTT; details: 5 mM KCl, 1 mM MgCl2, 1 mM CaCl2 added; HBS-P+ buffer, 25 °C
[10] = tested on: Dm-HS-6 ∆ s.c. (DNA, aptamer, none (no side-chains)) GAAAGCAGGACTGGAGATTGGTAGTAACTGCTGTCCTGCTAATCATGCCGTTCACGCTGACCTCAGACCGAACTAGAGCTT; details: 5 mM KCl, 1 mM MgCl2, 1 mM CaCl2 added; HBS-P+ buffer, 25 °C
[11] = tested on: Dm-HS-9 ∆ s.c. (DNA, aptamer, none (no side-chains)) GAAAGCAGGACTGGAGATCGATTATTGTGATTTTGATCTCCCCCATATCCCCTTCCCTACTCGCAGACCGAACTAGAGCTT; details: 5 mM KCl, 1 mM MgCl2, 1 mM CaCl2 added; HBS-P+ buffer, 25 °C
[12] = tested on: Dm-HS-10 ∆ s.c. (DNA, aptamer, none (no side-chains)) GAAAGCAGGACTGGAGATCCTTCGCATCGGCTTTCTCCCTGTCACCCCTGTTCCCCTTGACCGCAGACCGAACTAGAGCTT; details: 5 mM KCl, 1 mM MgCl2, 1 mM CaCl2 added; HBS-P+ buffer, 25 °C
[13] = tested on: Dm-HS-1 CGA ∆ s.c. (DNA, aptamer, as Dm-HS-1 but no side-chain at 19: allylamine at 22,25,37; alcohol at 28,34,49; phenol at 31,46; cyclopentyl at 40; cyclopropyl at 43,58; imidazole at 52,55,61) GAAAGCAGGACTGGAGATCGATTCTGGTGCTGTTGATCTCCGCCATTGTGCTCCTACCCTTCACAGACCGAACTAGAGCTT; details: 5 mM KCl, 1 mM MgCl2, 1 mM CaCl2 added; HBS-P+ buffer, 25 °C
[14] = tested on: Dm-HS-1 TGA ∆ s.c. (DNA, aptamer, as Dm-HS-1 but no side-chain at 34: fluorophenyl at 19; allylamine at 22,25,37; alcohol at 28,49; phenol at 31,46; cyclopentyl at 40; cyclopropyl at 43,58; imidazole at 52,55,61) GAAAGCAGGACTGGAGATCGATTCTGGTGCTGTTGATCTCCGCCATTGTGCTCCTACCCTTCACAGACCGAACTAGAGCTT; details: 5 mM KCl, 1 mM MgCl2, 1 mM CaCl2 added; HBS-P+ buffer, 25 °C
[15] = tested on: Dm-HS-1 CCG ∆ s.c. (DNA, aptamer, no side-chain at 40 (codon 8 CCG); others as HFNAP: fluorophenyl at 19; allylamine at 22, 25, 37; alcohol at 28, 34, 49; phenol at 31, 46; cyclopropyl at 43, 58; imidazole at 52, 55, 61) GAAAGCAGGACTGGAGATCGATTCTGGTGCTGTTGATCTCCGCCATTGTGCTCCTACCCTTCACAGACCGAACTAGAGCTT; details: 5 mM KCl, 1 mM MgCl2, 1 mM CaCl2 added to HBS-P+; HBS-P+ buffer, 25 °C

With COc1cccc2c1C(=O)c1c(O)c3c(c(O)c1C2=O)C[C@@](O)(C(C)=O)C[C@@H]3O[C@H]1C[C@H](N)[C@H](O)[C@H](C)O1 the Kd [1] was 970 ± 60 nM, the Kd [2] was 12.85 ± 1.6 nM and the Kd [3] was 4.77 ± 1.0 nM. It also gave a Kd [4] of 4.78 ± 0.95 nM, a Kd [5] of 6.16 ± 3.4 nM and a Kd [6] of 8.5 ± 2.3 nM. For the same molecule, the Kd [7] was 63600 ± 2400 nM, the Kd [8] was 114400 ± 7400 nM and the “Kd ∆ side-chains” value [9] was 4450 ± 280 nM. The “Kd ∆ side-chains” value [10] was 1510 ± 65 nM, the “Kd ∆ side-chains” value [11] was 5000 ± 140 nM and the “Kd ∆ side-chains” value [12] was 713 ± 28 nM. It also gave a Kd [13] of 231.1 ± 23.6 nM, a Kd [14] of 46.8 ± 4.8 nM and a Kd [15] of 21.9 ± 2.6 nM.

— paper PMC9352670 (2022)
